Tests used:
[1] = system: adjuvant-induced arthritis; experiment: Adjuvant-Induced Arthritis (AIA) in Lewis rats; conditions: 35 days and 45 days treatment sections
[2] = system: HBV; experiment: Efficacy of RAAS-8 in the HBV mouse hydrodynamic injection model; format: in vivo, BALB/c mice
Protocol: 3.1 Hydrodynamic Injection and Compound Administration • 3.1.1. From day −7 to day 0, all 5 mice in group 4 were administrated i.p./i.v. with test article daily for 8 • days according to Table 2. • 3.1.2. On day 0, all groups of mice were hydrodynamicly injected via tail vein with pcDNA3.1/HBV plasmid DNA in a volume of normal saline equal to 8% of a mouse body weight. The plasmid DNA solution for injections was prepared one day before injection and then stored in 4E until injection. • 3.1.3. From day 0 to day 5, mice in groups 1-3 were weighed and treated with compounds or vehicle according to the regimen in Table 2. For groups 1 and 3, the first dosing was executed 4 hours pre HDI. For groups 2, the first dosing was executed 4 hours post HDI. For group 4, the last dosing was carried out 4 hours post HDI. • 3.1.4. All mice were submandibularly bled for plasma preparation according to the design in Table 1. • 3.1.5. All mice were sacrificed and dissected to obtain livers (two pieces of left lobe, one piece of middle lobe and one piece of right lobe) according to the regimen in table 1. Isolated livers were snap frozen in liquid nitrogen immediately upon collected.
3.2.1 Detect HBV DNA Replication Level in Plasma • 3.2.1.1 Isolate DNA from 50 μl plasma using QIAamp 96 DNA Blood Kit. DNA was eluted with 120 μl ddH2O. • 3.2.1.2. Run qPCR for HBV DNA quantification. • a) Dilute HBV plasmid standard by 10-fold from 10^7 copies/μl to 10 copies/μl. • b) Prepare qPCR mix as shown below.
To eliminate the influence of input HBV plasmid, primers and probe targeting HBV sequence which detect newly replicated HBV DNA and input HBV plasmid DNA and targeting pcDNA3.1 plasmid backbone sequence which only detect the input plasmid DNA were used to do real-time PCR, respectively.
HBV DNA quantity=DNA determined by HBV primer-DNA determined by plasmid primer.
Dilute the plasma 500 fold;
Detect HBsAg level in 50 μl diluted plasma by using HBsAg ELISA kit.
3.2.3.1 Liver DNA Isolation • a) Homogenize the liver tissue with Qiagen Tissue Lyser in 10 mM Tris.HCl, 10 mM EDTA, pH7.5. • b) Spin samples. Transfer the supernatant to a new tube containing equal volume of 2× proteinase K digestion buffer. Incubate at 50[…] for 3 hours. • c) Extract with phenol: chloroform: Isoamyl alcohol. • d) Transfer the upper phase to new tubes, add RNase A and incubate at 37° C. for 30 min. • e) Extract with phenol: chloroform: Isoamyl alcohol. • f) Transfer the upper phase to new microfuge tubes, add 0.7-1 volume of isopropanol, add GlycoBlue Coprecipitant to 50 μg/mL, incubate at −20[…] for 30 min. • g) Centrifuge (12000 g, 10 min) to precipitate DNA. • h) Wash the precipitate with 70% ethanol. Dissolve it in 25 μl ddH2O. Store DNA at −20[…] until use.
The total liver DNA was diluted to 10 ng/μl. […]

[3] = system: HBV; experiment: Efficacy of AFOD RAAS 105 in the HBV mouse hydrodynamic injection model; format: in vivo, BALB/c mice
Protocol: From day −7 to day 0, mice in groups 6-7 are administrated IP/IV by turn with test article daily for 8 days according to Table 3.
On day 0, mice from group 1 to group 7 are hydrodynamically injected through tail vein with pcDNA3.1/HBV plasmid DNA in a volume of normal saline equal to 8% of a mouse body weight within 5 seconds. The plasmid DNA solution for injections is prepared before injection.
From day 0 to day 4, mice in groups 3-5 are administrated IP/IV by turn with test article daily for 5 days according to Table 2. From day 0 to day 4, mice in groups 1 and 2 are administrated PO with vehicle or ETV daily for 5 days according to Table 1. For groups 1-5, the first dosing is executed 4 hours post hydrodynamic injection. For groups 6-7, the last dosing is executed 4 hours pre hydrodynamic injection.
Mice from group 1 to group 7 are submandibularly bled for plasma preparation according to the design in Table 1. The blood samples will be collected in a tube containing heparin sodium and centrifuged at 7000×g and 4° C. for 10 min to obtain plasma samples.
On day 5, all mice in groups 1-7 are sacrificed and dissected to obtain livers (two pieces of left lobe, one piece of middle lobe and one piece of right lobe) according to the regimen in table 1. […]
Run qPCR for HBV DNA quantification. • a. […]
HBV DNA quantity=DNA determined by HBV primer-DNA determined by plasmid primer. […]

Row | Structure (SMILES) | body weight vs saline group [1] | ssDNA in liver by southern blot ([2]; RASS 8 prophylactic treatment or ETV treatment) | HBV intermediate DNA in liver by real-time PCR ([2]; day 5) | HBsAg level in plasma ([2]; therapeutic treatment, within 5 days post HDI) | inhibition to HBV replication (plasma HBV DNA) ([2]; therapeutically-treated, day 3 post HDI to end) | HBV replication in livers by real-time PCR ([3]; day 5) | HBsAg generation ([3]; oral 0.1 mg/kg, day 3)
1 | C[C@@H]1C[C@H]2[C@@H]3CCC4=CC(=O)C=C[C@]4(C)[C@@]3(F)[C@@H](O)C[C@]2(C)[C@@]1(O)C(=O)CO [Dex, Dexamethasone] | reduction of body weight |  |  |  |  |  | 
2 | C=C1[C@H](CO)[C@@H](O)C[C@@H]1n1cnc2c(=O)[nH]c(N)nc21 [entecavir, Entecavir, reference compound] |  | decreased dramatically | significantly decreased | didn't have significant inhibition | significant inhibition | significantly inhibited HBV replication in livers | significant increase
